The values that follow come from US9682980B2, “Positive allosteric modulators of mGluR2” (BRISTOL-MYERS SQUIBB COMPANY, priority 2012, dated 2017).

Structures are written as SMILES.

Sequence of human mGluR2 (Q14416 19-872): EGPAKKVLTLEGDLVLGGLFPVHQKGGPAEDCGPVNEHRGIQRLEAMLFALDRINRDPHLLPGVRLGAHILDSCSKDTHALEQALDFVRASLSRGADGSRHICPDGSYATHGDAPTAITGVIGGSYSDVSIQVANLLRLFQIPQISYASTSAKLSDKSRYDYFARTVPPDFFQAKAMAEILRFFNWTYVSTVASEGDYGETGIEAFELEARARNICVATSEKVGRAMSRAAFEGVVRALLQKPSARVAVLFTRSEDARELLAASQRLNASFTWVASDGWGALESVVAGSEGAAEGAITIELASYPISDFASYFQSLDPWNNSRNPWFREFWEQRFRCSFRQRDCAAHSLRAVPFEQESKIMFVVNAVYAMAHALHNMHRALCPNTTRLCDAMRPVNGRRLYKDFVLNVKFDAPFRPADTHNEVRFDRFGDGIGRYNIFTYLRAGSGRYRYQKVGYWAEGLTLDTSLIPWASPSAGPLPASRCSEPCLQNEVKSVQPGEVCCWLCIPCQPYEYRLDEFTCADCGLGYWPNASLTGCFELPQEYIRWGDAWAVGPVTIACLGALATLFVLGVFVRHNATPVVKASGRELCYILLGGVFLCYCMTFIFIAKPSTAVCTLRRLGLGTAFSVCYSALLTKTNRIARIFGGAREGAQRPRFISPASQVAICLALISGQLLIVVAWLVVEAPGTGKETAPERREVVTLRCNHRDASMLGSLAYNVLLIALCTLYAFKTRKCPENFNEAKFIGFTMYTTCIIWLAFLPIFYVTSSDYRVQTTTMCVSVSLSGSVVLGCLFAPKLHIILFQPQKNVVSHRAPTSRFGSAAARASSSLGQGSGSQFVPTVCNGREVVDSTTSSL

The first test addresses human mGluR2 (Homo sapiens (Human), UniProt Q14416). In words: MGluR2 cAMP assay. It counts as cell-based. The note with it: HEK293 cells clonally expressing human mGluR2, 1 μM forskolin, 1 μM LY-341495. The procedure:
Clonally expressed human mGluR2 in HEK293 background was glutamate starved overnight in media without glutamine (GIBCO MEM 12360), containing 10% FBS, 1% penicillin streptomycin.
On the day of the assay, media was removed, cells washed with PBS, cells harvested and pelleted by centrifugation. Cell pellets were resuspended in stimulation buffer without forskolin and counted. A solution of 1.25×10^6 cells/ml was prepared and dispensed to plates using a Combi liquid handler (Thermo). A standard curve was created using a top concentration of cAMP of 1 μM in the stimulation buffer, 1:3 dilutions over 14 points in the absence of cells. Plates were read by time-resolved fluorescence at […] and a ratio was calculated via in house software, (665 nM/618 nM)*10^4. In house software converted the fluorescence value ratios to units of cAMP concentration, which is then used to calculate % inhibition for each test compound.
Compounds were added to white, standard volume 384 non-binding surface plates (Corning 3574). Cells were resuspended in stimulation buffer consisting of Hanks Balanced Salt Solution (14175-095) pH 7.0, 20 mM HEPES, 2.0 mM CaCl2, 5.0 mM MgCl2, and 1 mM IBMX (Sigma 15879), 1 μM forskolin, and 1 μM LY-341495, for 30 minutes. Buffer without forskolin was used as a negative control. Solutions of D2 and cryptate detection reagents from the CISBIO dynamic cAMP kit (62AM4PEJ) were diluted 1:40 in lysis buffer. Lysis buffer consisted of 50 mM Phosphate Buffer pH 7.0, 800 mM Potassium Fluoride, 0.2% BSA, and 1.0% Triton. Assay reaction was terminated by addition of detection reagents in lysis buffer. One hour later, plates were read on a PE Viewlux. Data was extracted, and concentration response curves generated by fitting the data to a standard 4 parameter logistic equation from which EC50 values were determined See table 1: A: <10 nM; B: 10-100 nM; C: 100-1000 nM; D: 1000-10000 nM.
Turning to `FC(F)(F)Cc1nnc2c(Cl)c(N3CCC(c4cccc(Cl)c4Cl)CC3)cnn12` [Example 60, 8-Chloro-7-(4-(2,3-dichlorophenyl)piperidin-1-yl)-3-(2,2,2-trifluoroethyl)-[1,2,4]triazolo[4,3-b]pyridazine], the response was half-maximal at 94 nM (EC50). On the same count and under the same terms, in the case of `Clc1c(NC2CCC(c3ccccc3)CC2)cnn2c(CC3CC3)nnc12` (centres unmarked) [Example 61, 8-Chloro-3-(cyclopropylmethyl)-N-(4-phenylcyclohexyl)-[1,2,4]triazolo[4,3-b]pyridazin-7-amine] it was 225 nM; in that of `O=C1Oc2ccccc2C12CCN(c1cnn3c(CC4CC4)nnc3c1Cl)CC2` [Example 62, 1′-(8-Chloro-3-(cyclopropylmethyl)-[1,2,4]triazolo[4,3-b]pyridazin-7-yl)-2H-spiro[benzofuran-3,4′-piperidin]-2-one], 47 nM; in that of `O=C1Oc2ccccc2C12CCN(c1cnn3c(CC(F)(F)F)nnc3c1Cl)CC2` [Example 63, 1′-(8-Chloro-3-(2,2,2-trifluoroethyl)-[1,2,4]triazolo[4,3-b]pyridazin-7-yl)-2H-spiro[benzofuran-3,4′-piperidin]-2-one], 185 nM. On the same count and under the same terms, in the case of `FC(F)(F)Cc1nnc2c(Cl)c(NC3CCC(c4ccccc4)CC3)cnn12` (centres unmarked) [Example 64, 8-Chloro-N-(4-phenylcyclohexyl)-3-(2,2,2-trifluoroethyl)-[1,2,4]triazolo[4,3-b]pyridazin-7-amine] it was 733 nM; in that of `FC(F)(F)c1ccccc1C1CCN(c2cnn3c(CC4CC4)nnc3c2Cl)CC1` [Example 65, 8-Chloro-3-(cyclopropylmethyl)-7-(4-(2-(trifluoromethyl)phenyl)piperidin-1-yl)-[1,2,4]triazolo[4,3-b]pyridazine], 36 nM; in that of `FC(F)(F)Cc1nnc2c(Cl)c(N3CCC(c4ccccc4C(F)(F)F)CC3)cnn12` [Example 66, 8-Chloro-3-(2,2,2-trifluoroethyl)-7-(4-(2-(trifluoromethyl)phenyl)piperidin-1-yl)-[1,2,4]triazolo[4,3-b]pyridazine], 23 nM. `Fc1ccccc1C1CCN(c2ncn3c(CC(F)(F)F)nnc3c2Cl)CC1` [Example 67, 8-Chloro-7-(4-(2-fluorophenyl)piperidin-1-yl)-3-(2,2,2-trifluoroethyl)-[1,2,4]triazolo[4,3-c]pyrimidine]: the EC50 (in general, the concentration that produces a half-maximal response) was 5 nM. The same measure, in the same setting: as for `Fc1ccccc1C1CCN(c2ncn3c(CC4CC4)nnc3c2Cl)CC1` [Example 68, 8-Chloro-3-(cyclopropylmethyl)-7-(4-(2-fluorophenyl)piperidin-1-yl)-[1,2,4]triazolo[4,3-c]pyrimidine], the figure is 4 nM; as for `Fc1ccc(C2CCN(c3ncn4c(CC(F)(F)F)nnc4c3Cl)CC2)cc1` [Example 69, 8-Chloro-7-(4-(4-fluorophenyl)piperidin-1-yl)-3-(2,2,2-trifluoroethyl)-[1,2,4]triazolo[4,3-c]pyrimidine], 438 nM; as for `COc1cccc(F)c1C1CCN(c2cnn3c(CC4CC4)nnc3c2C(F)(F)F)CC1` [Example 70, 3-(Cyclopropylmethyl)-7-(4-(2-fluoro-6-methoxyphenyl)piperidin-1-yl)-8-(trifluoromethyl)-[1,2,4]triazolo[4,3-b]pyridazine], 3 nM.

`COc1cccc(F)c1C1CCN(c2cnn3c(CC4CC4)nnc3c2C(F)(F)F)CC1` [Example 71, 3-(Cyclopropylmethyl)-7-(4-(2-fluoro-6-methoxyphenyl)piperidin-1-yl)-8-(trifluoromethyl)-[1,2,4]triazolo[4,3-b]pyridazine] returned an EC50 of 4 nM. Still for that read-out and setting: in the case of `N#Cc1ccccc1C1CCN(c2cnn3c(CC4CC4)nnc3c2Cl)CC1` [Example 72, 2-(1-(8-Chloro-3-(cyclopropylmethyl)-[1,2,4]triazolo[4,3-b]pyridazin-7-yl)piperidin-4-yl)benzonitrile] it was 15 nM; in that of `N#Cc1ccccc1C1CCN(c2cnn3c(CC(F)(F)F)nnc3c2Cl)CC1` [Example 73, 2-(1-(8-chloro-3-(2,2,2-trifluoroethyl)-[1,2,4]triazolo[4,3-b]pyridazin-7-yl)piperidin-4-yl)benzonitrile], 18 nM; in that of `Fc1ccc(C2CCN(c3cnn4c(CC5CC5)nnc4c3Cl)CC2)c(F)c1` [Example 74, 8-Chloro-3-(cyclopropylmethyl)-7-(4-(2,4-difluorophenyl)piperidin-1-yl)-[1,2,4]triazolo[4,3-b]pyridazine], 14 nM.

For the compound `Fc1ccc(C2CCN(c3cnn4c(CC(F)(F)F)nnc4c3Cl)CC2)c(F)c1` [Example 75, 8-Chloro-7-(4-(2,4-difluorophenyl)piperidin-1-yl)-3-(2,2,2-trifluoroethyl)-[1,2,4]triazolo[4,3-b]pyridazine], the EC50 amounted to 16 nM. In turn, `FC(F)(F)c1cccnc1C1CCN(c2cnn3c(CC4CC4)nnc3c2Cl)CC1` [Example 76, 8-Chloro-3-(cyclopropylmethyl)-7-(4-(3-(trifluoromethyl)pyridin-2-yl)piperidin-1-yl)-[1,2,4]triazolo[4,3-b]pyridazine] had a 50% effective concentration (EC50) of 34 nM.

As for `N#Cc1ccccc1C1CCN(c2cnn3c(CC4CC4)nnc3c2C(F)(F)F)CC1` [Example 77, 2-(1-(3-(Cyclopropylmethyl)-8-(trifluoromethyl)-[1,2,4]triazolo[4,3-b]pyridazin-7-yl)piperidin-4-yl)benzonitrile], the EC50 stood at 4 nM. Compound `N#Cc1ccccc1C1CCN(c2cnn3c(CC(F)(F)F)nnc3c2C(F)(F)F)CC1` [Example 78, 2-(1-(3-(2,2,2-Trifluoroethyl)-8-(trifluoromethyl)-[1,2,4]triazolo[4,3-b]pyridazin-7-yl)piperidin-4-yl)benzonitrile] registered an EC50 of 7 nM. On the same count and under the same terms, as for `Clc1c(N2CCC(c3ccccn3)CC2)cnn2c(CC3CC3)nnc12` [Example 79, 8-Chloro-3-(cyclopropylmethyl)-7-(4-(pyridin-2-yl)piperidin-1-yl)-[1,2,4]triazolo[4,3-b]pyridazine], the figure is 382 nM; as for `COc1c(F)ccc(F)c1C1CCN(c2cnn3c(CC4CC4)nnc3c2C(F)(F)F)CC1` [Example 80, 3-(Cyclopropylmethyl)-7-(4-(3,6-difluoro-2-methoxyphenyl)piperidin-1-yl)-8-(trifluoromethyl)-[1,2,4]triazolo[4,3-b]pyridazine], 0.2 nM; as for `COc1c(F)ccc(F)c1C1CCN(c2cnn3c(CC(F)(F)F)nnc3c2C(F)(F)F)CC1` [Example 81, 7-(4-(3,6-Difluoro-2-methoxyphenyl)piperidin-1-yl)-3-(2,2,2-trifluoroethyl)-8-(trifluoromethyl)-[1,2,4]triazolo[4,3-b]pyridazine], 0.4 nM.

With `Clc1c(N2CCC(c3cccnc3)CC2)cnn2c(CC3CC3)nnc12` [Example 82, 8-Chloro-3-(cyclopropylmethyl)-7-(4-(pyridin-3-yl)piperidin-1-yl)-[1,2,4]triazolo[4,3-b]pyridazine], the concentration giving a half-maximal response (EC50) was 809 nM. `COc1cccnc1C1CCN(c2cnn3c(CC(F)(F)F)nnc3c2Cl)CC1` [Example 83, 8-Chloro-7-(4-(3-methoxypyridin-2-yl)piperidin-1-yl)-3-(2,2,2-trifluoroethyl)-[1,2,4]triazolo[4,3-b]pyridazine] returned an EC50 of 42 nM. The same measure, in the same setting: as for `Fc1ccccc1C1CCN(c2cnn3c(CC4CC4)nnc3c2C(F)(F)F)CC1` [Example 84, 3-(Cyclopropylmethyl)-7-(4-(2-fluorophenyl)piperidin-1-yl)-8-(trifluoromethyl)-[1,2,4]triazolo[4,3-b]pyridazine], the figure is 4 nM.

The subject of the next test is rats treated with phencyclidine (PCP).
Assay: not given
Particulars: cited from earlier work.
For the compound `N[C@@]1(C(=O)O)CC[C@H]2[C@H](C(=O)O)[C@H]21` [LY-354740], the brain glutamate levels result is recorded as “lowered brain glutamate levels”.

The test is the same for the next values; noted with them: hyper-locomotion and working memory deficits; cited from earlier work.
With `N[C@@]1(C(=O)O)CC[C@H]2[C@H](C(=O)O)[C@H]21` [LY-354740], the “behavioral effects of PCP” value is on record as “reversed the behavioral effects of PCP”.

A further test has as its system GAD patients.
Assay: not given
Particulars: cited from earlier work.
For the compound `C[C@H](N)C(=O)N[C@@]1(C(=O)O)CC[C@H]2[C@H](C(=O)O)[C@H]21` [LY-544344], the “therapeutic effects for anxiety” value is listed as “therapeutic effects”.

For the next test, the system named is schizophrenia.
Assay: not given
The note with it: cited from earlier work.
Consider `CSCC[C@H](N)C(=O)N[C@@]1(C(=O)O)CS(=O)(=O)[C@H]2[C@H](C(=O)O)[C@H]21` [LY-2140023], for which the “positive and negative symptoms in schizophrenia” value was “relief of positive and negative symptoms”.
